Test results: patent US12485106B2, “Methods of treating fibrotic liver diseases or conditions with indeglitazar” (PLEIOGENIX INC., priority 2023, dated 2025)
“Also recorded” adds a separate entry of the source.

Legend:
[1] = system: mouse model of human alcoholic hepatitis; experiment: AH (NIAAA) mouse model, 8-week efficacy and safety study, alone and with prednisolone
Description: Mice were fed with the ethanol diet for four weeks, followed by 4 weeks of intervention (8 weeks total treatment).
Livers were collected at the end-point from all mice and weighed. Liver samples were processed for histology to assess steatosis, inflammatory infiltrates and fibrosis. Briefly, liver tissue was fixed in 4% paraformaldehyde and paraffin-embedded, sectioned into 5 m thickness, and stained with hematoxylin-eosin (H&E), Oil-Red O staining, and Masson's trichrome staining.
Safety testing: The safety of indeglitazar treatment was assessed by body weight measurements and full necropsy at endpoint. Mice were terminated from the experiment by isoflurane anesthesia and blood was collected by a cardiac bleed into EDTA-treated tubes, and then centrifuged to obtain plasma to conduct clinical chemistry including full liver and renal toxicology panel. A portion of the liver was analyzed for liver triglycerides and cholesterol levels by biochemical assays. […] Hearts were weighted and fixed in 10% NBF, paraffin embedded, and sectioned into 4-μm thick slices. H&E staining was used to investigate myocardial cell hypertrophy, and ventricle diameters by microscopy.

PPARα = target: T1, PPARα (Homo sapiens, UniProt Q07869); conditions: cited from earlier work
T1 sequence (Q07869 1-468): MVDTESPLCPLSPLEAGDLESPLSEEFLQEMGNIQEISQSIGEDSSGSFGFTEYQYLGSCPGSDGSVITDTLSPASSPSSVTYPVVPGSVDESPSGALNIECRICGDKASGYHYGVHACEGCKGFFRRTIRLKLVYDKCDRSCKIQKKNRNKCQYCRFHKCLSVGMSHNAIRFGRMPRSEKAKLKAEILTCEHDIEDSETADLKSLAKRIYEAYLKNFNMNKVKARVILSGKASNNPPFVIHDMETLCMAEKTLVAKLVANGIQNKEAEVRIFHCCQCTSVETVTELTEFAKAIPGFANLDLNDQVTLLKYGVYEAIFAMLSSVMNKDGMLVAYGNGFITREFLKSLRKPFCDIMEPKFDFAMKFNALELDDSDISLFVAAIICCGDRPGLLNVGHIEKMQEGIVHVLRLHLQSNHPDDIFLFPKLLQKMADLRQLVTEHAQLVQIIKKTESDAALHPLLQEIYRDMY

[2] = system: mouse model of human alcoholic hepatitis; experiment: AH mouse model (chronic and binge ethanol feeding plus LPS), dose-response study; assay type: in vivo; conditions: for effect on body weight: 10, 30 and 50 mg/kg/day oral gavage, male and female mice
Description: Mouse model generation and treatment. The AH mouse model was generated as described in Shah et al. through chronic and binge ethanol feeding plus lipopolysaccharides (LPS) administration to provide a second hit to increase liver damage (Shah R et al., Oxid Med Cell Longev, (2018), 2018:9630175; Lamas-Paz A et al., World J Gastroenterol, (2018), 24:5063-75). This model is easy to implement and recapitulates the major features of human AH including marked ALT elevation, liver steatosis, and fibrosis (O'Beirne J., Dig Dis Sci., (2020), 65:920-1). A total of 60 mice, were used at a 50:50 male/female ratio to provide a comprehensive representation applicable in treating the general population. C57BL6 mice (6-8-week-old) were fed Lieber-DeCarli '82 rodent liquid diet (LDC) ad libitum for 5 days to acclimatize them to tube feeding. On day 6, mice were treated according to Table 1. Ethanol-fed groups were allowed free access to LDC diet containing 5% (vol/vol) ethanol for 11 days, and control groups were pair-fed with the LDC diet only. Indeglitazar was administered by oral gavage starting from day 6. On day 12, mice were given a single dose of 5 g/kg/bw of EtOH by oral gavage, and LPS (2 mg/kg/bw) by intraperitoneal injection (IP), pair-fed mice were fed isocaloric maltose dextrin and all mice were euthanized 6 h later.
Analysis and tests: Mice were treated for 11 days; body weights were measured before and during administration. Plasma was analyzed for ALT, AST, and GGT. A full necropsy was performed at the end-point together with liver histology to assess steatosis, and inflammatory infiltrates. Briefly, liver tissue was fixed in 10% neutral buffered formalin and paraffin-embedded, sectioned into […] thickness, and stained with hematoxylin-eosin (H&E) and Oil-Red O staining for evaluation of histopathological changes. Stained liver slices were analyzed under a bright-field microscope using the histological scoring system for nonalcoholic fatty liver disease (Kleiner D L et al., Hepatology, (2005), 41:1313-21). The remaining liver tissue was analyzed for liver triglycerides and cholesterol levels by biochemical assays.
The AH mouse model was generated as described in Shah et al. through chronic and binge ethanol (EtOH) feeding plus lipopolysaccharide (LPS) administration, to provide a second insult, to increase liver damage (Bertola A et al., Nat Protoc, (2013), 8:627-637; Takahashi Y et al., (2017), 313-339; Shah R et al., Oxid Med Cell Longev, (2018), 2018:9630175). This model recapitulates the major features of human AH, including marked ALT and AST elevation, liver steatosis, and fibrosis (Lucey M R et al., N Engl J Med., (2009), 360:2758-2769). For a dose-response study, a total of 60 (12 per group, 50:50 male/female ratio) C57BL6 mice (6-8-weeks old) were fed Lieber-DeCarli '82 rodent liquid diet (LDC) ad libitum, for 5 days, to acclimatize them to tube feeding. On days 6-11, mice were fed the LCD diet plus ethanol (5% vol:vol), and treated with indeglitazar (10 mg/kg, 30 mg/kg, or 50 mg/kg, oral gavage). On day 12, mice were given a single dose of EtOH (5 g/kg/body weight) by oral gavage and LPS (2 mg/kg/body weight) by ip injection; pair-fed mice were fed isocaloric maltose dextrin and all mice were euthanized 6 h later.

[3] = system: adiponectin gene expression; conditions: compared with full PPAR γ-agonists like pioglitazone; cited from earlier work
[4] = indeglitazar 50 mg/kg, prednisolone 10 mg/kg, vs EtOH-treated vehicle control
[5] = indeglitazar 50 mg/kg, prednisolone 10 mg/kg, vs ethanol-treated vehicle control
[6] = indeglitazar 50 mg/kg, prednisolone 10 mg/kg, vs vehicle+EtOH
[7] = indeglitazar 50 mg/kg/day, prednisolone 10 mg/kg/day, vs ethanol-treated vehicle control
[8] = indeglitazar 50 mg/kg/day, prednisolone 10 mg/kg/day, vs ethanol-treated vehicle control, listed as indeglitazar

## COc1ccc(S(=O)(=O)n2cc(CCC(=O)O)c3cc(OC)ccc32)cc1 [Indeglitazar, 3-[5-methoxy-1-(4-methoxybenzenesulfonyl)-1H-indol-3-yl]-propanoic acid]
[1]; indeglitazar 50 mg/kg, prednisolone 10 mg/kg, data not shown
  liver histopathology: steatosis, hepatocellular karyomegaly, and ballooning: reduced significantly
[1]; [4]
  effect on liver hydroxyproline: significant decrease
  effect on plasma adiponectin: significant increase
[1]; [5]
  effect on ALT: significant decreases
  effect on AST: significant decreases
  effect on plasma TGFβ: significant decrease
  effect on total bilirubin: decrease; also recorded: significant decreases
[1]; [6]
  decrease of liver TG: 28%
  decrease of plasma TGFβ: 66%
  decrease of plasma TNF-α: 50%
  increase of adiponectin: 31%
[1]; indeglitazar 50 mg/kg, prednisolone 10 mg/kg, vs vehicle+EtOH, P<0.0001
  decrease of hydroxyproline: 31%
[1]; [7]
  effect on body weight: no significant effect
  effect on gamma-glutamyl transferase (GGT): no significant effect
  effect on heart weight (actual): no significant effect
  effect on heart weight divided by body weight×100: no significant effect
[1]; [8]
  effect on body weight: Neither EtOH (vs no EtOH vehicle control), indeglitazar, or prednisolone had a significant effect
  effect on heart weight (actual): Neither EtOH (vs no EtOH vehicle control), indeglitazar, or prednisolone had a significant effect
[1]; indeglitazar 50 mg/kg/day, prednisolone 10 mg/kg/day, vs ethanol-treated vehicle control, male and female mice
  effect on overall survival: significant increase; also recorded: significantly increased
PPARα
  agonism against PPARα: full agonism
[2]; 50 mg/kg, vs vehicle+EtOH
  effect on liver triglycerides: significantly reduced
[2]; 50 mg/kg, vs vehicle+EtOH, P<0.0001
  reduction of ALT activity: 60%
[2]; 50 mg/kg, vs vehicle+EtOH, P<0.004
  reduction of AST: 49%
[2]; 50 mg/kg, vs vehicle+EtOH, P<0.03
  reduction of liver TG: 35%
[2]; 10, 30, 50 mg/kg/day
  effect on liver total cholesterol: no significant effect
[2]; 10, 30 and 50 mg/kg oral gavage, vs EtOH-treated vehicle control
  effect on food intake: Neither EtOH (vs no EtOH vehicle control) or indeglitazar had a significant effect
[2]; vs ethanol-treated vehicle control
  effect on body weight: no significant effect
[2]; vs ethanol-treated vehicle control, listed as indeglitazar
  effect on body weight: Neither EtOH (vs no EtOH vehicle control) or indeglitazar had a significant effect; also recorded: no significant effect
[2]; 10 and 50 mg/kg, vs ethanol-treated vehicle control
  effect on AST: significant decreases
[2]; all three doses (10, 30, 50 mg/kg), vs ethanol-treated vehicle control
  effect on ALT: significant decrease
[3]
  stimulating adiponectin gene expression: only partially effective
